Data on one compound can be found in patent publication US9358226B2, “Triarylmethane analogs and their use in treating cancers” (Emory University, priority 2007, dated 2016).

Structures are written as SMILES.

For orientation: IC50 means the concentration needed to halve the response being measured.

In data set [1] the test system is P. falciparum D6 (Chloroquine Sensitive). Briefly: Malaria model, chloroquine sensitive P. falciparum. It counts as cell-based. The following applies: Plasmodium falciparum, D6; read-out: IC50 (nM) vs P. falciparum D6 (Chloroquine Sensitive). How it is done:
The compounds were tested in a malaria model using both chloroquine sensitive and multidrug resistant P. falciparum. The malaria model was the same as published in JAC Advance Access published online on Jul. 30, 2008, Journal of Antimicrobial Chemotherapy, doi:10.1093/jac/dkn315, the contents of which are hereby incorporated by reference, and the data is summarized in the table below.
Briefly, the assay involves exposing both chloroquine sensitive and multidrug resistant P. falciparum to the compounds. After one hour of exposure to the highest concentration of the compound, followed by removal of the compound, the growth of all stages of P. falciparum was observed. The reduction in the growth stages was then compared with untreated control parasites. […] The presence of strong inhibition (defined herein as 10% growth) of all parasite stages was evaluated when the parasites were exposed to various concentrations of various compounds.

The nature of data set [2]: ESR spectrum with superoxide dismutase. The note with it: room temperature ESR, conditions as in Li et al. The method, then:
Li used ESR to confirm the production of NADPH-dependent.O2—by isolated endosomes (Li et al., Molecular and Cellular Biology, January 2006, p. 140-154, 26(1):140-154 (2006)). ESR assays were conducted at room temperature using a Bruker model EMX ESR spectrometer (Bruker). Vesicular fractions from each sample were mixed with the spin trap, 50 mM 5,5-dimethyl-1-pyrroline N-oxide (DMPO), in a total volume of 500 μl of PBS, pH 7.4. This solution contained iminodiacetic acid-chelating resin (10 ml/liter; Sigma-Aldrich). The reaction was initiated by adding NADPH to 100 μM and was immediately placed into the ESR spectrometer. DMPO-hydroxyl radical adduct formation was assayed for 10 min. Instrument settings were as follows: receiver gain, 1×10^6; modulation frequency, 100 kHz; microwave power, 40.14 mW; modulation amplitude, 1.0 G; and sweep rate, 1 G/s.

Data set [3] relates to bloodstream form of T. brucei. The experiment in a line: Bloodstream form of T. brucei, live cells, overnight treatment. Format: cell-based. The method, then:
These and other compounds were tested on live cells.
The experiment was conducted with one million cells of the bloodstream form of T. brucei. After over night treatment with different compounds (at concentrations of 50 and 100 μmolar), cells were counted and plotted with controls.

The next data set deals with bEnd.3 hemangiomas. The experiment in a line: bEnd.3 hemangioma in vivo, intralesional treatment. How it is done: In order to determine if compounds that inhibit ang-2 formation in vitro would ameliorate hemangioma formation in vivo, we injected one million bEnd.3 cells subcutaneously into nine nude mice.
For each treatment condition, three mice were injected with 1,000,000 bEnd.3 cells and received intralesional injection with either vehicle control, brilliant green or gentian viol et (from left to right in photo) on days 9 and 14. Animals were euthanized on day 20, secondary to tumor burden in the control animals.
For each treatment condition, three mice were subcutaneously injected with one million bEnd.3 cells and monitored for tumor development. On day 9, tumors were measured in all nine animals, and there was no significant difference in tumor volume before the initiation of treatment. Each mouse then received intralesional injection with either 0.33 ml vehicle control, brilliant green (5 mg/kg, dissolved in […] ethanol and 900 μl intralipid) or gentian violet (5 mg/kg, dissolved in 100 μl ethanol and 900 μl intralipid) on days 9 and 14. No toxicity was noted following injection. Animals were euthanized on day 20, secondary to tumor burden in the control animals. Photos represent average tumor burden in each of the three groups (FIG. 3a), and tumor volume (mm^3) is graphically depicted (FIG. 3b). Error bars represent the standard error of the mean.

The next data set has as its target T1, Nox2 (Homo sapiens, UniProt P04839).
T1 construct: expressed in transfected cells; host or cells: COS-phox cells
T1 sequence (P04839 2-570 limits assumed): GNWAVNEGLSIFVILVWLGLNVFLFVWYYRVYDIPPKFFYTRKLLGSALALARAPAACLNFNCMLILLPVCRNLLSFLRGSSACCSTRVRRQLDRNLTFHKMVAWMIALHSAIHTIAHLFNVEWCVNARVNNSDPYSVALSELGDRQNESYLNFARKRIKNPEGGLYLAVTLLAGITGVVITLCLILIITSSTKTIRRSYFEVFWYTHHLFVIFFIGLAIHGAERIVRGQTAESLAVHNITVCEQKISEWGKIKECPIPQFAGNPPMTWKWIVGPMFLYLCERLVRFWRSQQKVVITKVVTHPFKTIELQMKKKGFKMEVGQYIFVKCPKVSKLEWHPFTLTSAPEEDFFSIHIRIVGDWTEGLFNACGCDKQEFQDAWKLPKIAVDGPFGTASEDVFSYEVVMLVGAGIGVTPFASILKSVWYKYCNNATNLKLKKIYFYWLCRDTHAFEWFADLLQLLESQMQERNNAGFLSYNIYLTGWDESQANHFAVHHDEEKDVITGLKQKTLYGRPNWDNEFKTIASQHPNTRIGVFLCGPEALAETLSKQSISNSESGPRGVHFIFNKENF
T1 sequence (P13498 2-195 partner limits assumed): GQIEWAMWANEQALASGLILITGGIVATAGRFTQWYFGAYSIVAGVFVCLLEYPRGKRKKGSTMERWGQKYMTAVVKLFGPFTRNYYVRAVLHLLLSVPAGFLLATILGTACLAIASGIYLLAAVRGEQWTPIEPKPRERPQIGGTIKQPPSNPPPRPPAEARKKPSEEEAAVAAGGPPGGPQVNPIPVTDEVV
Briefly: H2O2 production, homovanillic acid assay, Cos-phox cells. It counts as cell-based. The note with it: phorbol 12-myristate 13-acetate stimulated, 1 hour 37° C. How it is done: After 1 hour incubation at 37° C., the reaction was stopped and H2O2 production was measured using the homovanillic acid assay. The ability of these drugs to inhibit production of H2O2 is shown as a percentage relative to the untreated control (100%). […] Optimal Nox2 activity requires phorbol 12-myristate 13-acetate stimulation whereas Nox4 activity is constitutive.
H2O2 release was measured using the homovanillic acid assay as described previously (Martyn, 2006). Briefly, 1.5-1.75×10^5 cells/well of a 12-well plate were seeded. The following day, cells were washed once with Hank's balanced salt solution and then preincubated for 15 minutes with either gentian violet (10-20 nM) or brilliant green (0.5-1.0 μM) in 1 ml of media. The cells were then washed once with Hank's balanced salt solution. Gentian violet or brilliant green was added at the same concentrations as in pretreatment to 0.5 ml of homovanillic acid assay solution (100 μM homovanillic acid assay, 4 U/ml horseradish peroxidase in Hank's balanced salt solution with Ca^2+ and Mg^2+) and incubated with the cells for 1 hour at 37° C. Cos-phox cells were additionally stimulated with 0.4 μg/ml phorbol 12-myristate 13-acetate. […] Fluorescence was read on a BioTek Synergy HT (BioTek Instruments Inc., Winooski, Vermont, […].) with an excitation of 320 nm and emission of 440 nm.

For the compound `CN(C)c1ccc(C(=C2C=CC(=[N+](C)C)C=C2)c2ccc(N(C)C)cc2)cc1` [Gentian Violet (GV), hexamethyl pararosaniline chloride], the IC50 in data set [1] was 12.1 nM; in data set [3] (Trypanosoma brucei, bloodstream form of T. brucei) it was < 20 nM. Further, in data set [2], the “radical formation with superoxide (ESR)” value was “appear to form a radical by reacting with superoxide”. The “cell survival after over night treatment” value in data set [3] (one million cells, 50 and 100 μmolar) is reported as “All cells died”. In the data set with bEnd.3 hemangiomas (5 mg/kg intralesional on days 9 and 14, euthanized day 20), the “decrease in tumor size compared to control” value stood at 92.6%. The “toxicity as a result of treatment” value in the data set on bEnd.3 hemangiomas (mouse, in vivo, 5 mg/kg) is listed as “Neither local nor systemic toxicity was observed”. For the same compound, the “inhibition of Nox2 activity (H2O2 production)” value on Nox2 is “inhibited”.
